What was measured:
[1] = test system: RNA transcription products from PolI (preribosome), PolII (myc), and PolRMT (ATP6) in PC-3 cells; assay: RNA transcripts in PC-3 cells by RT-PCR; type: cell-based, human; conditions: 100 μM, 1-day treatment
Protocol: CX-5461, a known specific RNA PolI inhibitor, was used as the positive control ([25]). The growth medium was aspirated and replaced with 200 μl of 100 μM BMS-986094, 5 μM CX-5461, or DMSO control prepared in growth medium. At selected time points (0.5, 1, 4, 8, and 24 h), duplicate wells of the compounds and DMSO control were aspirated, the cells were washed 1× with PBS (pH 7.4), and 100 μl of RNA lysis buffer was added (Promega, Sunnyvale, CA). RNA was purified using the Wizard SV 96 total RNA isolation kit (Promega) and eluted in 100 μl of nuclease-free water. The TaqMan RNA-to-Ct 1-step kit (ABI/Life Technologies) was used for reverse transcription-quantitative PCR (RT-qPCR) amplification and quantification, using the 7900HT Fast real-time PCR system (ABI) under the following conditions: 15 min at 48°C for reverse transcription and 10 min at 95°C for activation, followed by 40 cycles of 15 s at 95°C for denaturation and 1 min at 60°C for annealing and extension. […] Transcripts were quantified relative to the standard curves, and the results expressed as the percentages of the average value of DMSO control wells.

Stimulated PBMCs = test system: Stimulated PBMCs; design: method as in PMID 24419349; conditions: 5 days; read-out: Mean CC50 ± SD in PBMCs Stimulated; cited from earlier work

SMILES | relative levels of RNA transcripts (preribosomal, myc, mitochondrial ATP6, total RNA) [1] | CC50 (Stimulated PBMCs) [µM]
COc1nc(N)nc2c1ncn2[C@@H]1O[C@H](COP(=O)(N[C@@H](C)C(=O)OCC(C)(C)C)Oc2cccc3ccccc23)[C@@H](O)[C@@]1(C)O (some centres unmarked) [BMS-986094] | decreased the relative levels of multiple RNA transcripts | 
CC(C)OC(=O)[C@H](C)N[P@](=O)(OC[C@H]1O[C@@](C#N)(c2ccc3c(N)ncnn23)[C@](C)(O)[C@@H]1OC(=O)C(C)C)Oc1ccccc1 [GS-6620] |  | > 100

Source: PMC4750701, “Role of Mitochondrial RNA Polymerase in the Toxicity of Nucleotide Inhibitors of Hepatitis C Virus” (Antimicrobial Agents and Chemotherapy, 2016)
